Measurements reported in PMC3835334 (ACS medicinal chemistry letters, 2013).
Where two headings read alike, the source gives them in different places.

Legend:
[1] = system: JMAR, MDA-MB-231, SKMEL-28, DRO81-1 and MRC-5 cells; test: cells
[2] = system: JMAR, MDA-MB-231, SKMEL-28, DRO81-1 and MRC-5 cells
[3] = read-out: IC50 values over all cell lines tested

Row | SMILES | IC50 [1, 3] [nM] | Cytotoxic activity in words [2] | further results
1 | CC(=O)OC[C@]12C(=O)C=C[C@H](OC(=O)c3ccc(Cl)cc3)[C@]13O[C@@H]3C[C@H]1[C@@H]3CC[C@H]([C@H](C)[C@H]4CC(C)=C(COC(=O)c5ccc(Cl)cc5)C(=O)O4)[C@@]3(C)CC[C@@H]12 [Compound 16] | > 10000 | – | –
2 | CC1=C(COC(=O)c2ccc(Cl)cc2)C(=O)O[C@@H]([C@@H](C)[C@H]2CC[C@H]3[C@@H]4C[C@H]5O[C@]56[C@@H](O)C=CC(=O)[C@]6(COC(=O)c5ccc(Cl)cc5)[C@H]4CC[C@]23C)C1 [Compound 11] | – | active | –
3 | CC(=O)OCC1=C(C)C[C@H]([C@@H](C)[C@H]2CC[C@H]3[C@@H]4C[C@H]5O[C@]56[C@@H](OC(=O)N(C)C)C=CC(=O)[C@]6(COC(C)=O)[C@H]4CC[C@]23C)OC1=O [Compound 15] | – | – | Increased cytotoxicity compared to 1 [2]: 3–5 times
4 | CC(=O)OCC1=C(C)C[C@H]([C@@H](C)[C@H]2CC[C@H]3[C@@H]4C[C@@H](OC(C)=O)C5=CC=CC(=O)[C@]5(COC(C)=O)[C@H]4CC[C@]23C)OC1=O [Compound 20] | > 10000 | – | –
5 | CC1=C(COC(=O)c2ccc(Cl)cc2)C(=O)O[C@@H]([C@@H](C)[C@H]2CC[C@H]3[C@@H]4C[C@H]5O[C@]56[C@@H](OC(=O)c5ccc(Cl)cc5)C=CC(=O)[C@]6(CO)[C@H]4CC[C@]23C)C1 [Compound 12] | > 10000 | – | –
6 | CCC(=O)OCC1=C(C)C[C@H]([C@@H](C)[C@H]2CC[C@H]3[C@@H]4C[C@H]5O[C@]56[C@@H](OC(=O)CC)C=CC(=O)[C@]6(COC(=O)CC)[C@H]4CC[C@]23C)OC1=O [Compound 9, withalongolide A 4,19,27-propionate] | 130 to 1000 | – | –
7 | CC(=O)OCC1=C(C)C[C@H]([C@@H](C)[C@H]2CC[C@H]3[C@@H]4C[C@@H](O)C5=CC=CC(=O)[C@]5(COC(C)=O)[C@H]4CC[C@]23C)OC1=O [Compound 18] | > 10000 | abolished | –
8 | CC(=O)OCC1=C(C)C[C@H]([C@@H](C)[C@H]2CC[C@H]3[C@@H]4C[C@H]5O[C@]56CC=CC(=O)[C@]6(COC(C)=O)[C@H]4CC[C@]23C)OC1=O [Compound 17, Jaborosalactone V diacetate] | – | equipotent to withaferin A | –
9 | CC(=O)OCC1=C(C)C[C@H]([C@@H](C)[C@H]2CC[C@H]3[C@@H]4C[C@@H](O)[C@@]5(Cl)CC=CC(=O)[C@]5(COC(C)=O)[C@H]4CC[C@]23C)OC1=O [Compound 19] | – | – | IC50 ([1]; read-out: IC50 values against melanoma and carcinoma cells): 800 to 2160 nM
10 | CC(=O)OCC1=C(C)C[C@H]([C@@H](C)[C@H]2CC[C@H]3[C@@H]4C[C@H]5O[C@]56[C@@H]5C=CC(=O)[C@]6(COC(=O)CC/C=C/CCC(=O)O5)[C@H]4CC[C@]23C)OC1=O [Compound 24] | 205 to 965 | – | –
11 | CC1=C(CO)C(=O)O[C@@H]([C@@H](C)[C@H]2CC[C@H]3[C@@H]4C[C@H]5O[C@]56[C@@H](O)C=C(I)C(=O)[C@]6(CO)[C@H]4CC[C@]23C)C1 [Compound 21] | – | very weak activity | –
12 | CC1=C(COC(=O)c2ccc(Cl)cc2)C(=O)O[C@@H]([C@@H](C)[C@H]2CC[C@H]3[C@@H]4C[C@H]5O[C@]56[C@@H](OC(=O)c5ccc(Cl)cc5)C=CC(=O)[C@]6(COC(=O)c5ccc(Cl)cc5)[C@H]4CC[C@]23C)C1 [Compound 13] | > 10000 | – | –
13 | CC1=C(CO)C(=O)O[C@@H]([C@@H](C)[C@H]2CC[C@H]3[C@@H]4C[C@H]5O[C@]56[C@@H](OC(=O)c5ccc(Cl)cc5)C=CC(=O)[C@]6(CO)[C@H]4CC[C@]23C)C1 [Compound 10] | – | active | –
